In PubChem BioAssay AID776 (The Scripps Research Institute Molecular Screening Center, 2007):
The source made the active and inactive calls.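 How the source made its calls: active means compounds whose IC50 for cutting the S1P-driven reporter signal is at most 40 micromolar; inactive means IC50 above 40 micromolar.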

Target: CHO S1P3/Ga15 NFAT-beta-lactamase reporter, FRET
Experiment: S1P3 receptor NFAT-BLA reporter inhibition, dose response, counter-screen for 5HT1E antagonist project, CHO cells, Ga15, NFAT beta-lactamase, FRET (AID 776)

| SMILES | IC50 |
| --- | --- |
| CC(=O)Oc1ccc(N2C(=O)C3C(C2=O)C2(C)C=CC3(C)O2)cc1 (stereo not given) | 7.56 µM |
| COc1ccc(N2C(=O)CC(NCc3ccncc3)C2=O)cc1 (stereo not given) | > 50 µM (inactive) |
| CSc1ccccc1N=CC1=C(O)CC(C)(C)CC1=O | 4.33 µM |
| COc1cc2c(cc1OC)C1=C(C#N)CC/C(=N\S(=O)(=O)c3ccccc3)N1CC2 | > 50 µM (inactive) |
| O=C1C2C3C=CC(CO)(O3)C2C(=O)N1c1ccc(-c2ccccc2)cc1 (stereo not given) | > 12.4 µM (inactive) |
